Literature values, collected in article PMC6017357, “In Vitro Inhibitory Effects of Synthetic Cannabinoid EAM-2201 on Cytochrome P450 and UDP-Glucuronosyltransferase Enzyme Activities in Human Liver Microsomes” (Molecules : A Journal of Synthetic Chemistry and Natural …, 2018).
Like-named read-outs stand apart in the source and are kept apart here.

Assays:
CYP2C9 [1] = biological target: T1, CYP2C9 (Homo sapiens, UniProt P11712); set-up: CYP2C8, CYP2C9, CYP2C19 and CYP3A4 activities in ultrapooled human liver microsomes were evaluated; from tissue; host or cells: ultrapooled human liver microsomes; method as in PMID 18838506; details: typical CYP2C9 mechanism-based inhibitors; cited from earlier work
CYP2C8 [2] = biological target: T2, CYP2C8 (Homo sapiens, UniProt P10632); details: cited from earlier work; for time-dependent inhibition of CYP2C8 activity: human liver microsomes
T2 sequence (P10632 1-490): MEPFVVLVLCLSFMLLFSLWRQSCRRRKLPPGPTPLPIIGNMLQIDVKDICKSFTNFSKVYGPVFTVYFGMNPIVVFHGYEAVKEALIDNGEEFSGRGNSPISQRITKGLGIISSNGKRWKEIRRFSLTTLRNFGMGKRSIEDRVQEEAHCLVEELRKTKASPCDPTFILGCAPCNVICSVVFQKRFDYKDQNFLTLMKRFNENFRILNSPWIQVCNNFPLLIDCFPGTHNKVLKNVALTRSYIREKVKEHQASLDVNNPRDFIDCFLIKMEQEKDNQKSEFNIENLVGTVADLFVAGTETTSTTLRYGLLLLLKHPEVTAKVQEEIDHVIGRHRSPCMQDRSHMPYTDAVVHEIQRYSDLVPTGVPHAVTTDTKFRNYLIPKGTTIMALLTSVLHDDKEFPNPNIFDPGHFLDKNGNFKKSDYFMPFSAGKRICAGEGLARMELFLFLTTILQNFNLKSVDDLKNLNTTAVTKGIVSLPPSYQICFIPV

CYP2C9 [3] = biological target: T1, CYP2C9; details: read-out: Ki, CYP2C9-catalyzed diclofenac hydroxylation; mixed or competitive inhibition, human liver microsomes; cited from earlier work
CYP2C19 [4] = biological target: T3, CYP2C19 (Homo sapiens, UniProt P33261); details: human liver microsomes; cited from earlier work
CYP3A4 [5] = biological target: T4, CYP3A4 (Homo sapiens, UniProt P08684); details: read-out: Ki, CYP3A4 midazolam 1′-hydroxylation; competitive (AM-2201) and noncompetitive (MAM-2201) inhibition, human liver microsomes; cited from earlier work
UGT1A3 = biological target: T5, UGT1A3 (Homo sapiens, UniProt P35503); details: human liver microsomes, cited from earlier work; for Ki: read-out: Ki, UGT1A3-catalyzed chenodeoxycholic acid 24-acyl glucuronidation
T5 sequence (P35503 29-534): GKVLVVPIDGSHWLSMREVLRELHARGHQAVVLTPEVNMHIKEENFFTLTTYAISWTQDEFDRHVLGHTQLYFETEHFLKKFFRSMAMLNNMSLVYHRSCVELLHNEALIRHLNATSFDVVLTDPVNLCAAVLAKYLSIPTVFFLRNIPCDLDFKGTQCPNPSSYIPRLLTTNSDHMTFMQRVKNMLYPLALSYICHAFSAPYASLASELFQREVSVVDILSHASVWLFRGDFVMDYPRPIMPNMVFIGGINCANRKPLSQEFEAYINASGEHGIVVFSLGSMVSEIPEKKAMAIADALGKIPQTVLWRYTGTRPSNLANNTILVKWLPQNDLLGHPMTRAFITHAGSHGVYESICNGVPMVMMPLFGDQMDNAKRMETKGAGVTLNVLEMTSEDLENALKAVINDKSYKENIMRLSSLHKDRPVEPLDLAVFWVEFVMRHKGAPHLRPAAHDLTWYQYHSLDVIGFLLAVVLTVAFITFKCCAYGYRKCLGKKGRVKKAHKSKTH

[6] = human liver microsomes; cited from earlier work
[7] = system: human recombinant CYP2C19; details: mixed-type inhibition, human recombinant CYP2C19 enzymes; read-out: Ki, [S]-mephenytoin hydroxylation activity; cited from earlier work
CYP3A4 [8] = biological target: T4, CYP3A4; details: enzyme source not given; cited from earlier work
CYP2C8 [9] = biological target: T2, CYP2C8; set-up: CYP2C8, CYP2C9, CYP2C19 and CYP3A4 activities in ultrapooled human liver microsomes were evaluated; from tissue; host or cells: ultrapooled human liver microsomes; method as in PMID 15304522; details: typical CYP2C8 inhibitors; cited from earlier work
human recombinant CYP3A4 = details: competitive inhibition, human recombinant CYP3A4 enzymes; read-out: Ki, CYP3A4-catalyzed diltiazem N-demethylation; cited from earlier work
UGT1A9 = biological target: T6, UGT1A9 (Homo sapiens, UniProt O60656); set-up: method as in PMID 23230132; details: human liver and intestinal microsomes; cited from earlier work
T6 construct: ultrapooled human liver microsomes (0.2 mg/mL), 5 mM UDPGA; from tissue; host or cells: ultrapooled human liver microsomes
T6 sequence (O60656 26-530): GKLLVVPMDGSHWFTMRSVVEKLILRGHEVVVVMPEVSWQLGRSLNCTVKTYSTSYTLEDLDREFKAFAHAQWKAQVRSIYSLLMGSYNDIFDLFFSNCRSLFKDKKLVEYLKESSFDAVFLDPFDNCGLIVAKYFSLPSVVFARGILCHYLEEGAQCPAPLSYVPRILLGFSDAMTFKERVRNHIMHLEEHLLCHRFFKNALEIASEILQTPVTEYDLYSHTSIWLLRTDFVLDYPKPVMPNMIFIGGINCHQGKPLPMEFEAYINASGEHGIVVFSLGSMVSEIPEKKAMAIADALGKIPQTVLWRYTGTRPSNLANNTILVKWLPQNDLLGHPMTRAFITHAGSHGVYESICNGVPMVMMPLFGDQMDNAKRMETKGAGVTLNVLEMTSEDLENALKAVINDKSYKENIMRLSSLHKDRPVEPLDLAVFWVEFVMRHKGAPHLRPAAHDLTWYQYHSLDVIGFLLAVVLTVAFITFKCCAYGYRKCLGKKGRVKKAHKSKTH

UGT2B7 = biological target: T7, UGT2B7 (Homo sapiens, UniProt P16662); set-up: method as in PMID 23230132; details: human liver and intestinal microsomes; cited from earlier work
T7 construct: ultrapooled human liver microsomes (0.2 mg/mL), 5 mM UDPGA; from tissue; host or cells: ultrapooled human liver microsomes
T7 sequence (P16662 24-529): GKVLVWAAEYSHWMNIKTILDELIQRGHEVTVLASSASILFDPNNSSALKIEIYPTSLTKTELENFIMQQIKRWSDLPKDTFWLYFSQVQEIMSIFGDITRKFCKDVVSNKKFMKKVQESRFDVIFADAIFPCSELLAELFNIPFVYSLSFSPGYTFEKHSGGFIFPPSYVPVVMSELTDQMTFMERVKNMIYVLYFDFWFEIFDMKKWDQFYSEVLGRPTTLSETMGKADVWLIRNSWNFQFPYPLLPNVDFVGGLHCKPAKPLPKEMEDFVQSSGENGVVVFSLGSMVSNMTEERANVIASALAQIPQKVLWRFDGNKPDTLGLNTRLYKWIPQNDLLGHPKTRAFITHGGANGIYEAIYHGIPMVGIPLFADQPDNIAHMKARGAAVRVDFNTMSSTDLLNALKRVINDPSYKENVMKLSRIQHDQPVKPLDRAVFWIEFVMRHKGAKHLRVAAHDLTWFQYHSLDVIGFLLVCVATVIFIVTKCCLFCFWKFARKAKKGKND

CYP3A4 [10] = biological target: T4, CYP3A4; details: human liver microsomes, time-dependent inhibitors with reported clinical drug–drug interaction; cited from earlier work
CYP2C19 [11] = biological target: T3, CYP2C19; details: typical mechanism-based CYP2C19 inhibitors; cited from earlier work

T1 sequence (P11712 whole entry): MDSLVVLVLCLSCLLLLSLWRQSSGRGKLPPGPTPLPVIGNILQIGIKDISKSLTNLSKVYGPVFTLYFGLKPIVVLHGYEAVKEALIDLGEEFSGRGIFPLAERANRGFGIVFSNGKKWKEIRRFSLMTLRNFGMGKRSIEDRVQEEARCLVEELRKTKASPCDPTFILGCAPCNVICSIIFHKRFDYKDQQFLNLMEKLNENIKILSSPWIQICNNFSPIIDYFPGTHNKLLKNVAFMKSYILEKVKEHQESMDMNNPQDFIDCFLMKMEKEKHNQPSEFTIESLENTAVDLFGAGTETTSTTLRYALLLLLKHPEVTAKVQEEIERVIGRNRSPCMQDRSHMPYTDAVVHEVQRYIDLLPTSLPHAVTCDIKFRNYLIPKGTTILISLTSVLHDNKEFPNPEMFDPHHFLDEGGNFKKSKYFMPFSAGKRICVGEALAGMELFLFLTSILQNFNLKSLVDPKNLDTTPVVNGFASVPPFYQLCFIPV
T4 sequence (P08684 whole entry): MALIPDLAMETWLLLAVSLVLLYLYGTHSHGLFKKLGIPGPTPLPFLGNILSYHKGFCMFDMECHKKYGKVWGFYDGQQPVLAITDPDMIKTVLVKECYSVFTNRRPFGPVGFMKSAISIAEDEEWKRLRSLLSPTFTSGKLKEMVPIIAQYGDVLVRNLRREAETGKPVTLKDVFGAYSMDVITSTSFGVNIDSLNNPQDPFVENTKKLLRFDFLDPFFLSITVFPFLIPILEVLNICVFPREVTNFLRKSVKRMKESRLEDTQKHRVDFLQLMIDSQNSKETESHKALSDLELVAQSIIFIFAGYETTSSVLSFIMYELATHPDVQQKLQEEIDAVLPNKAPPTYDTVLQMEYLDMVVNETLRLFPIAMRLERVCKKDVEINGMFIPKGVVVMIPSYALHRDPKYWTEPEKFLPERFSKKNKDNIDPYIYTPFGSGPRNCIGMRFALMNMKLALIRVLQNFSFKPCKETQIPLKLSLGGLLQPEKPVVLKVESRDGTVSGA
T3 sequence (P33261 whole entry): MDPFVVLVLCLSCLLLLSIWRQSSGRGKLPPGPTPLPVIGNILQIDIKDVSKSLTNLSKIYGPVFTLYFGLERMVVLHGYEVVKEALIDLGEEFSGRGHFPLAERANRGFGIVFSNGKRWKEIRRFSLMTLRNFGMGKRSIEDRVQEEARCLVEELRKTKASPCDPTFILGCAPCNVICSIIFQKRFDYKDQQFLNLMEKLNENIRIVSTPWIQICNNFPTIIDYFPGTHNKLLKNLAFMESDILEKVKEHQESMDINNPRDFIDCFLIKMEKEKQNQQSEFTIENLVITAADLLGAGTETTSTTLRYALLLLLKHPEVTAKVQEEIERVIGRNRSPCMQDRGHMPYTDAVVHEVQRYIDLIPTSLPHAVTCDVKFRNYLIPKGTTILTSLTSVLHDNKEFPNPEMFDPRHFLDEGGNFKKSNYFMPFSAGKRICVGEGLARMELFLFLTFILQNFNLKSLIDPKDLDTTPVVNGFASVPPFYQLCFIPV

## CC(C(=O)O)c1ccc(C(=O)c2cccs2)cc1 (racemic) [(±)-suprofen]
CYP2C9 [1]
  inactivation efficiency (kinact/Ki), CYP2C9: 18.3 M⁻¹ s⁻¹

## O=C(c1cccc2ccccc12)c1cn(CCCCCF)c2ccccc12 [AM-2201]
CYP2C8 [2]
  inactivation efficiency (kinact/Ki), CYP2C8: 430 M⁻¹ s⁻¹
  time-dependent inhibition of CYP2C8 activity: exhibited time-dependent inhibition
CYP2C9 [3]
  Ki: 3.9 µM
CYP2C19 [4]
  inhibition of CYP2C19-catalyzed [S]-mephenytoin hydroxylation: did not inhibit
CYP3A4 [5]
  Ki: 4 µM
UGT1A3
  Ki: 4.3 µM
[6]
  number of metabolites: 19 metabolites

## Cc1ccc(C(=O)c2cn(CCCCCF)c3ccccc23)c2ccccc12 [MAM-2201, (1-(5-fluoropentyl)-1H-indol-3-yl)(4-methyl-1-naphthalenyl)-methanone]
CYP2C8 [2]
  inactivation efficiency (kinact/Ki), CYP2C8: 1230 M⁻¹ s⁻¹
  time-dependent inhibition of CYP2C8 activity: exhibited time-dependent inhibition
CYP2C9 [3]
  Ki: 5.6 µM
CYP2C19 [4]
  inhibition of CYP2C19-catalyzed [S]-mephenytoin hydroxylation: did not inhibit
CYP3A4 [5]
  Ki: 5.4 µM
UGT1A3
  Ki: 5 µM
[6]
  number of metabolites: 19 metabolites

## CCCCCc1cc(O)c2c(c1)OC(C)(C)[C@@H]1CCC(C)=C[C@@H]21 [THC, ∆9-tetrahydrocannabinol]
[7]
  Ki: 1.93 µM
CYP2C9 [3]
  Ki: 1.31 µM
CYP3A4 [8]
  inhibition of CYP3A4 activity: did not inhibit

## CCCCc1oc2ccccc2c1C(=O)c1cc(I)c(OCCN(CC)CC)c(I)c1 [amiodarone]
CYP2C8 [9]
  inactivation efficiency (kinact/Ki), CYP2C8: 9.5 M⁻¹ s⁻¹

## C=C(C)[C@@H]1CCC(C)=C[C@H]1c1c(O)cc(CCCCC)cc1O [cannabidiol]
[7]
  Ki: 0.793 µM
Human recombinant CYP3A4
  Ki: 1 µM
UGT1A9
  inhibition of UGT1A9 activity: inhibited
UGT2B7
  inhibition of UGT2B7 activity: inhibited

## CCCCCc1cc(O)c2c(c1)OC(C)(C)c1ccc(C)cc1-2 [cannabinol]
UGT1A9
  inhibition of UGT1A9 activity: inhibited
UGT2B7
  inhibition of UGT2B7 activity: inhibited
CYP3A4 [8]
  inhibition of CYP3A4 activity: did not inhibit

## CC[C@H]1OC(=O)[C@H](C)[C@@H](O[C@H]2C[C@@](C)(OC)[C@@H](O)[C@H](C)O2)[C@H](C)[C@@H](O[C@@H]2O[C@H](C)C[C@H](N(C)C)[C@H]2O)[C@](C)(OC)C[C@@H](C)C(=O)[C@H](C)[C@@H](O)[C@]1(C)O [clarithromycin]
CYP3A4 [10]
  inactivation efficiency (kinact/Ki), CYP3A4: 46.7 M⁻¹ s⁻¹

## COC(=O)[C@H](c1ccccc1Cl)N1CCc2sccc2C1 [clopidogrel]
CYP2C19 [11]
  inactivation efficiency (kinact/Ki), CYP2C19: 65 M⁻¹ s⁻¹

## CC1(C)[C@@H](O)CC[C@]2(C)[C@H]3C(=O)C=C4[C@@H]5C[C@@](C)(C(=O)O)CC[C@]5(C)CC[C@@]4(C)[C@]3(C)CC[C@@H]12 [glycyrrhetinic acid]
UGT1A3; read-out: IC50, UGT1A3-catalyzed chenodeoxycholic acid 24-acyl glucuronidation, selective UGT1A3 inhibitor
  IC50: 4.3 µM

## NNCCc1ccccc1 [phenelzine]
CYP2C8 [9]
  inactivation efficiency (kinact/Ki), CYP2C8: 52.2 M⁻¹ s⁻¹

## O=C(O)COc1ccc(C(=O)c2cccs2)c(Cl)c1Cl [tienilic acid]
CYP2C9 [1]
  inactivation efficiency (kinact/Ki), CYP2C9: 142 M⁻¹ s⁻¹
